Patent publication US20040034023A1, “Use of polycyclic aromatic compounds for making medicines capable of inhibiting telomerase” (priority 2000, published 2004)
pIC50: −log10 of the molar value. Where “and” joins values, the source holds several entries; their conditions need not be identical. Identical values can stand only once.

Test system: triplex
Experiment: not given
Conditions: 15 μM colorant; cited from earlier work

Which Δ Tm triplex does the source give for CCCNCc1ccc2nc3ccc4nc5ccc(CNCCC)cc5cc4c3cc2c1 [Compound 4] here?
Its Δ Tm triplex is 18 °C.

Which Δ Tm triplex does the source give for CCCNCc1ccc2nc3c(ccc4cc5cc(CNCCC)ccc5nc43)cc2c1 [Compound 5] here?
The Δ Tm triplex was 7 °C.

For CCCNCc1ccc2nc3ccc4cc5cc(CNCCC)ccc5nc4c3cc2c1 [Compound 1], which Δ Tm triplex is on record?
The Δ Tm triplex was 20 °C.

For CCCNCc1cc2nc3ccccc3cc2c2cc3ccccc3nc12 [Compound 2], which Δ Tm triplex is on record?
The Δ Tm triplex was 37 °C.

For CN(C)CCCNCc1cc2nc3ccccc3cc2c2cc3ccccc3nc12 [Compound 3], which Δ Tm triplex is on record?
Its Δ Tm triplex is 44 °C.

For CN(C)CCCNCc1ccc2nc3c(ccc4cc5cc(CNCCCN(C)C)ccc5nc43)cc2c1 [Compound 6], which Δ Tm triplex is on record?
The Δ Tm triplex was 16 °C.

Test system: human HeLa tumoral line
Experiment: Antiproliferative effect / cytotoxicity on HeLa cells (Cell Titer 96 Aqueous One Solution)
Assay type: cell-based
Conditions: HeLa cells in the presence of compound for 24 hours
Experimental: Cells of cancer lines are incubated for 3 days in the presence of different concentrations of compound 1.
These cells are cultured in a MEM (Life Technologies) medium containing 10% of decomplemented foetal calf serum, glutamine, nonessential amino acids (1%) and antibiotics (penicillin and streptomycin). The ligand is diluted in the culture medium after adhesion of the cells on 96-well plates (2500 cells per well). The number of cells is estimated by the “Cell Titer 96 Aqueous One Solution Cell Proliferation Assay” kit from Promega. Each measurement was carried out in quadruplicate. The cells are left in the presence of the compound for 1 to 4 days, then counted.

With CCCNCc1ccc2nc3ccc4cc5cc(CNCCC)ccc5nc4c3cc2c1 [Compound 1] as the molecule, how does the pIC50 read?
Its pIC50 is 6.30.

Same assay, conditions: HeLa cells incubated for 96 hours, 0.5 micromolars

For CCCNCc1ccc2nc3ccc4cc5cc(CNCCC)ccc5nc4c3cc2c1 [Compound 1], which mortality is on record?
The mortality was 100%.

Same assay, conditions: HeLa cells, concentrations of 5 micromolars or more

With CCCNCc1ccc2nc3ccc4cc5cc(CNCCC)ccc5nc4c3cc2c1 [Compound 1] as the molecule, how does the mortality rate read?
The mortality rate was 100%.

Test system: G-quadruplex (fluo-GGGTTAGGGTTAGGGTTAGGG-tamra oligonucleotide, SEQ ID No. 1)
Experiment: G-quadruplex stabilization, Tm in fluorescence (FRET method)
Assay type: binding
Conditions: 1 μM colorant; 0.1 M LiCl 10 mM cacodylate buffer pH 7.6; 0.2 μM oligonucleotide
Experimental: All the experiments were carried out in a 10 mM sodium cacodylate buffer of pH 7.6 containing 0.1 M of lithium chloride (or sodium chloride). The absence of fluorescent contamination in the buffer was verified beforehand. The fluorescent oligonucleotide is added at the final concentration of 0.2 μM.
The identification of G-quartets ligands was carried out by fluorescence according to the FRET (Fluorescence Resonance Energy Transfer) method which corresponds to a dipole-dipole resonance interaction between two molecules close to each other, one of which, the donor, transfers its excitation energy to the other molecule, or acceptor. The formation of an intramolecular G-quartet structure must bring the 2 chromophores close enough to be able to observe a transfer of energy.
All the fluorescence measurements were carried out on a Spex Fluorolog DM1B apparatus, using an excitation line width of 1.8 nm and an emission line width of 4.5 nm. The specimens are placed in a micro quartz dish measuring 0.2×1 cm. The temperature of the specimen is controlled by an external water bath. The single oligonucleotide was analysed at 20, 30, 40, 50, 60, 70 and 80° C. The emission spectra are recorded using an excitation wavelength of 470 nm. The excitation spectra are recorded using either 515 nm, or 588 nm as emission wavelength. The spectra are adjusted to take account of the response of the instrument by reference curves. A substantial extinction (80-90%) of the fluorescence of the fluorescein at ambient temperature is observed, in keeping with an intramolecular folding of the oligonucleotide at 20° C. in the form of a G-quadruplex, which induces a juxtaposition of its 5′ and 3′ ends, respectively bound to the fluorescein and to the tetramethylrhodamine (tamra in short). This juxtaposition involves a phenomenon already described, extinction of fluorescence of the donor by FRET, and a sensitized emission of the acceptor.
A stock solution of oligonucleotide at the strand concentration of 0.2 μM in a 0.1 M LiCl 10 mM cacodylate buffer of pH 7.6 is prepared beforehand, heated briefly to 90° C. and cooled slowly to 20° C., then distributed by aliquots of 600 μl in the fluorescence dishes. 3 μl of water (for the control) or 3 μl of the product to be tested (stock at 200 μM, final concentration 1 μm) are then added and mixed. The specimens are then left to incubate for at least 1 hour at 20° C. before each measurement.
Each experiment allows only a single specimen to be measured. This is firstly incubated at an initial temperature of 20° C., raised to 80° C. in 40 minutes, left for 5 minutes at 80° C., then cooled to 20° C. in 62 minutes. During this time, the fluorescence is measured simultaneously at two emission wavelengths (515 nm and 588 nm) using 470 nm as excitation wavelength. A measurement is carried out every 30 seconds. The temperature of the water bath is recorded in parallel, and the fluorescence profile as a function of the temperature is reconstituted from these values. The fluorescence profiles are then standardized between 20° C. and 80° C., and the temperature for which the emission intensity at 515 nm is the average of those and high and low temperature is called Tm. In these conditions, the Tm of the reference specimen without addition of product is 44° C. in a lithium chloride buffer. This temperature is increased to more than 55° C. in the sodium chloride buffer. The addition of a compound stabilizing the G-quadruplex induces an increase in the Tm. This increase is considered significant if it is greater than 3° C.
In the tests for which the results are reported below, two oligonucleotides were used of sequences SEQ ID No. 1 and SEQ ID No. 2, replaced at the 5′ end by a fluorescein (fluo in short) group and at 3′ end by a tamra group, conforming to the following sequences: […]

With c1ccc2c(CCNCc3ccc4nc5ccc6cc7cc(CNCCc8c[nH]c9ccccc89)ccc7nc6c5cc4c3)c[nH]c2c1 [Compound 10] as the molecule, how does the “Δ Tm G4(FRET)” value read?
The value was “+8.4 °C”.

With c1ccc2nc3cc(CNCCN4CCCCC4)c4nc5ccccc5cc4c3cc2c1 [Compound 7] as the molecule, how does the “Δ Tm G4(FRET)” value read?
The value was “+2.5 °C”.

Which “Δ Tm G4(FRET)” value does the source give for c1cc2nc3ccc4cc5cc(CNCCCN6CCOCC6)ccc5nc4c3cc2cc1CNCCCN1CCOCC1 [Compound 12] here?
Its value is “+7 °C”.

For CN(C)CCCNCc1ccc2nc3ccc4cc5cc(CNCCCN(C)C)ccc5nc4c3cc2c1 [Compound 13], which “Δ Tm G4(FRET)” value is on record?
Its value is “+19.7 °C”.

With NCCCCNCc1ccc2nc3ccc4cc5cc(CNCCCCN)ccc5nc4c3cc2c1 [Compound 11] as the molecule, how does the “Δ Tm G4(FRET)” value read?
Its value is “+18 °C”.

With CCCNCc1ccc2nc3c(ccc4cc5cc(CNCCC)ccc5nc43)cc2c1 [Compound 5] as the molecule, how does the “Δ Tm G4(FRET)” value read?
Its value is “+12.5 °C”.

Which “Δ Tm G4(FRET)” value does the source give for “tetra [N-methyl pyridyl]porphyrin [reference compound]” here?
The value was “approximately 4 °C”.

Which “Δ Tm G4(FRET)” value does the source give for c1cn(CCCNCc2ccc3nc4ccc5cc6cc(CNCCCn7ccnc7)ccc6nc5c4cc3c2)cn1 [Compound 8] here?
The value was “+15 °C”.

Which “Δ Tm G4(FRET)” value does the source give for CCCNCc1cc2nc3ccccc3cc2c2cc3ccccc3nc12 [Compound 2] here?
Its value is “+5.5 °C”.

Which “Δ Tm G4(FRET)” value does the source give for c1nc(CCNCc2ccc3nc4ccc5cc6cc(CNCCc7c[nH]cn7)ccc6nc5c4cc3c2)c[nH]1 [Compound 9] here?
Its value is “+10.5 °C”.

Test system: human telomerase
Experiment: Telomerase inhibition, TRAP test with HL60 cell extract
Assay type: biochemical
Conditions: TRAP test, HL60 cell lysate as source of telomerase

With c1ccc2nc3cc(CNCCN4CCCCC4)c4nc5ccccc5cc4c3cc2c1 [Compound 7] as the molecule, how does the pIC50 read?
The pIC50 was 5.70.

With CCCNCc1ccc2nc3ccc4nc5ccc(CNCCC)cc5cc4c3cc2c1 [Compound 4] as the molecule, how does the pIC50 read?
The pIC50 was 6.00.

With c1cc2nc3ccc4cc5cc(CNCCCN6CCOCC6)ccc5nc4c3cc2cc1CNCCCN1CCOCC1 [Compound 12] as the molecule, how does the pIC50 read?
Its pIC50 is 6.32.

With CN(C)CCCNCc1ccc2nc3ccc4cc5cc(CNCCCN(C)C)ccc5nc4c3cc2c1 [Compound 13] as the molecule, how does the pIC50 read?
Its pIC50 is 7.55.

With NCCCCNCc1ccc2nc3ccc4cc5cc(CNCCCCN)ccc5nc4c3cc2c1 [Compound 11] as the molecule, how does the pIC50 read?
The pIC50 was 6.89.

With CCCNCc1ccc2nc3c(ccc4cc5cc(CNCCC)ccc5nc43)cc2c1 [Compound 5] as the molecule, how does the pIC50 read?
The pIC50 was 6.30.

With c1cn(CCCNCc2ccc3nc4ccc5cc6cc(CNCCCn7ccnc7)ccc6nc5c4cc3c2)cn1 [Compound 8] as the molecule, how does the pIC50 read?
The pIC50 was 6.34.

With CCCNCc1ccc2nc3ccc4cc5cc(CNCCC)ccc5nc4c3cc2c1 [Compound 1] as the molecule, how does the pIC50 read?
The pIC50 was 6.52.

With CCCNCc1cc2nc3ccccc3cc2c2cc3ccccc3nc12 [Compound 2] as the molecule, how does the pIC50 read?
The pIC50 was 5.85 and 5.84.

With CN(C)CCCNCc1cc2nc3ccccc3cc2c2cc3ccccc3nc12 [Compound 3] as the molecule, how does the pIC50 read?
The pIC50 was 6.12.

With c1nc(CCNCc2ccc3nc4ccc5cc6cc(CNCCc7c[nH]cn7)ccc6nc5c4cc3c2)c[nH]1 [Compound 9] as the molecule, how does the pIC50 read?
Its pIC50 is 6.02.

With CN(C)CCCNCc1ccc2nc3c(ccc4cc5cc(CNCCCN(C)C)ccc5nc43)cc2c1 [Compound 6] as the molecule, how does the pIC50 read?
Its pIC50 is 6.05.

Same assay, conditions: tested at 0.1, 1 and 10 μM

For CCCNCc1ccc2nc3ccc4cc5cc(CNCCC)ccc5nc4c3cc2c1 [Compound 1], which “in vitro inhibition of the telomerase (FIG. 3A, gel of elongation products)” value is on record?
The value was “disappearance of the bands with less mobility”.

Which “in vitro inhibition of the telomerase (FIG. 3A, gel of elongation products)” value does the source give for CCCNCc1cc2nc3ccccc3cc2c2cc3ccccc3nc12 [Compound 2] here?
The value was “inhibits the telomerase”.
